Measurements published in patent US9744146B2, “Method for alleviating disturbance of bile acid metabolism, amino acid metabolism, and/or gut microbiota metabolism” (China Medical University, priority 2013, dated 2017).

Columns and labels:
bile acid metabolism = assay: Analysis of bile acid metabolism markers (glycine, taurine) by NMR in serum and urine of high-fat-diet mice; type: in vivo, C57BL6/J male mice; settings: gallic acid 100 mg/kg orally daily (the third group), 16-week-old
Description: (§1) The gallic acid is purchased from Sigma, U.S.A.
(§2) In addition, to ensure experimental stability, the mice in the first and second group were given water at a volume the same as that in the third and fourth group. At the age of 16-week-old, the urine of the mice was collected, and the concentration of the blood glucose and serum insulin were measured. Then, the mice were sacrificed, and the serum was collected for the analysis of metabolic markers. The liver was weighted and photographed.
(§3) The collected blood and urine were analyzed by a nuclear magnetic resonance spectrum. The steps are shown as follows. • (1) Urine: The urine (500 μl), PBS (50 μl) (81:19 vol/vol, comprising 0.2 M NaHPO4 and 0.2 M NaH2PO4, pH=7.4), 10% deuteroxide, and 0.03% trimethylsilyl propionate (TSP) were mixed in a micro-centrifuge tube and centrifuged with 13000 rpm for 20 minutes at 4° C. The supernatant (500 μl) was collected and analyzed by 600 MHz nuclear magnetic resonance (NMR, Bruker AVANCE 600AV) at 25° C. The 1D NOESY FID signal was transferred to a one-dimensional NMR spectrum of graphing through Fourier transform. • (2) Blood: The serum (250 μl) and deuteroxide (350 μl) were mixed in a micro-centrifuge tube and centrifuged with 13000 rpm for 20 minutes at 4° C. The supernatant (500 μl) was collected and analyzed. The metabolites in serum were analyzed by using NMR sequence CPMG.
It has been known that the concentration of taurine and glycine can be used as markers of bile acid metabolism (see Miyazaki T, Matsuzaki Y (2012) Taurine and liver diseases: a focus on the heterogeneous protective properties of taurine. Amino Acids, which is entirely incorporated hereinto by reference). Therefore, the integrated area of the spectrum of glycine (chemical shift 3.56 ppm singlet) and the taurine (chemical shift 3.40 ppm triplet) in the blood and urine were analyzed.

amino acid metabolism = assay: Analysis of amino acid metabolism markers by NMR in serum of high-fat-diet mice; type: in vivo, C57BL6/J male mice; settings: gallic acid 100 mg/kg orally daily (the third group)
Description: as §1, §2, §3
It has been known that the concentration of isoleucine, leucine, valine, glutamate, glutamine, tyrosine, phenylalanine, alanine, lysine, arginine and ornithine can be used as the markers of amino acid metabolism (see Rare Disease Diet Control Manual—amino acid metabolism, Foundation for Rare Disorders, pages 18, 22, 26-31, which is entirely incorporated hereinto by reference). Therefore, the integrated area of the spectrum of isoleucine (chemical shift 1.01 ppm dublet), the leucine (chemical shift 0.97 ppm triplet) and the valine (chemical shift 1.04 ppm doublet) in the serum were analyzed.

[1] = system: gut microbiota metabolism; assay: Analysis of gut microbiota metabolism markers by NMR in serum and urine of high-fat-diet mice; type: in vivo, C57BL6/J male mice; settings: gallic acid 100 mg/kg orally daily (the third group)
Description: as §1, §2, §3
It has been known that the concentration of isobutyric acid, butanoic acid, hippuric acid, dimethylamine and trimethylamine can be used as the markers of the gut microbiota metabolism and reflect the change of gut microbiota. Therefore, the integrated area of the spectrum of isobutyric acid, butanoic acid, hippuric acid, dimethylamine and trimethylamine in the blood and urine were analyzed.

[2] = system: nonalcoholic fatty liver and insulin resistance in mice induced by the high-fat-diet; assay: Liver weight, blood glucose, serum insulin and liver pathology in high-fat-diet mice; type: in vivo, C57BL6/J male mice; settings: gallic acid 50 or 100 mg/kg orally daily, compared to the high-fat-diet group
Description: as §1, §2

mouse = settings: cited from earlier work

O=C(O)c1cc(O)c(O)c(O)c1 [gallic acid]
glycine, integrated area of NMR spectrum (bile acid metabolism; serum): 142.91 ± 10.60 the normalized and transferred NMR signal × 10^3 | glycine, integrated area of NMR spectrum (bile acid metabolism; urine): 206.51 ± 8.45 the normalized and transferred NMR signal × 10^3 | taurine, integrated area of NMR spectrum (bile acid metabolism; urine): 489.81 ± 125.78 the normalized and transferred NMR signal × 10^3 | alanine, integrated area of NMR spectrum (amino acid metabolism): 96.11 ± 6.07 the normalized and transferred NMR signal × 10^3 | arginine, integrated area of NMR spectrum (amino acid metabolism): 30.08 ± 0.78 the normalized and transferred NMR signal × 10^3 | glutamate, integrated area of NMR spectrum (amino acid metabolism): 39.50 ± 1.39 the normalized and transferred NMR signal × 10^3 | glutamine, integrated area of NMR spectrum (amino acid metabolism): 40.61 ± 3.88 the normalized and transferred NMR signal × 10^3 | isoleucine, integrated area of NMR spectrum (amino acid metabolism): 32.29 ± 3.25 the normalized and transferred NMR signal × 10^3 | leucine, integrated area of NMR spectrum (amino acid metabolism): 109.28 ± 2.36 the normalized and transferred NMR signal × 10^3 | lysine, integrated area of NMR spectrum (amino acid metabolism): 74.93 ± 2.24 the normalized and transferred NMR signal × 10^3 | ornithine, integrated area of NMR spectrum (amino acid metabolism): 36.39 ± 1.45 the normalized and transferred NMR signal × 10^3 | phenylalanine, integrated area of NMR spectrum (amino acid metabolism): 6.44 ± 0.39 the normalized and transferred NMR signal × 10^3 | tyrosine, integrated area of NMR spectrum (amino acid metabolism): 6.78 ± 0.85 the normalized and transferred NMR signal × 10^3 | valine, integrated area of NMR spectrum (amino acid metabolism): 68.26 ± 3.46 the normalized and transferred NMR signal × 10^3 | isobutyric acid, integrated area of NMR spectrum ([1]; serum): 22.49 ± 1.55 | butanoic acid, integrated area of NMR spectrum ([1]; urine): 187.08 ± 10.46 | dimethylamine, integrated area of NMR spectrum ([1]; urine): 197.9 ± 9.20 | hippuric acid, integrated area of NMR spectrum ([1]; urine): 10.33 ± 0.90 | trimethylamine, integrated area of NMR spectrum ([1]; urine): 269.21 ± 76.77 | effect on nonalcoholic fatty liver induced by the high-fat-diet ([2]; FIGS. 1, 4A, 4B): ameliorating | effect on insulin resistance induced by the high-fat-diet ([2]; FIGS. 2, 3): ameliorating | No Observed Adverse Effect Level (NOAEL) (mouse): greater than 5000 mg/kg
